Experimental data: patent US8779004B2, “Stable emulsion formulations” (Amgen, Inc., priority 2006, dated 2014)

What was measured:
[1] = Solubility of calcimimetics in oil phases (RP-HPLC); type: physicochemical; settings: oil or lipid, thermodynamic from solid
Description: The solubility measurements of the compounds were prepared by the addition of 1 g of drug substance to two milliliters of oil into a Wheaton 5 mL vial. The headspace was sparged with nitrogen, and enclosed with a West 4405/50 gray Teflon coated stopper and manually sealed by an aluminum overseal. The preparations were repeated again with the oils containing either purified egg or soy lecithin. All labeled vials were shaken at room temperature for eighteen hours on a platform shaker. After eighteen hours, the samples were diluted in mobile phase, and analyzed by the RP-HPLC method. Table 2 summarizes solubility results (expressed in mg/mL) of cinacalcet in various oil phases.

[2] = Zeta potential titration of emulsions (droplet charge vs pH); type: physicochemical; settings: cinacalcet/1% EYP/10% SBO emulsion
Description: Panel A, titration results of 1% EYP/10% SBO in 1 mM dibasic phosphate. Panel B, titration results of cinacalcet/1% EYP/10% SBO in 1 mM dibasic phosphate. Other components of the emulsions include 10% soybean oil, 1% egg lecithin, 2.25% glycerin and water. Panel C, titration results for Compound A. Emulsion composition: SBO 10%, Lecithin 2% at pH 7. Concentration of Compound A was 5 mg/mL for formulation #1 and 1 mg/mL for formulation #2.
The zeta potential measurements were made on a Malvern Zetasizer 4 laser-scattering particle electrophoretic analyzer that measures the electrophoretic mobility and zeta potential distribution. Samples were prepared for the zeta potential titration by diluting the emulsion approximately 2500 fold in 1 mM dibasic phosphate pH 9 and titrating the solution with 100 mM phosphoric acid in 0.5 pH unit increments. […] Theoretically, the emulsions are stabilized by this charge, which prevents the droplets from coalescing. […] In contrast, the cinacalcet emulsions achieve charge neutrality in the range of pH 7-7.5.

SMILES: C[C@@H](NCCCc1cccc(C(F)(F)F)c1)c1cccc2ccccc12 [Cinacalcet, N-(1-(R)-(1-naphthyl)ethyl]-3-[3-(trifluoromethyl)phenyl]-1-aminopropane]
- solubility at 18 h ([1]; Long Chain Triglycerides (oil phase) with egg lecithin, Long Chain Triglycerides, Egg lecithin): > 362 mg/mL
- solubility at 18 h ([1]; Long Chain Triglycerides (oil phase) with soy lecithin, Long Chain Triglycerides, Soy lecithin): > 304 mg/mL
- solubility at 18 h ([1]; Long Chain Triglycerides (oil phase), Long Chain Triglycerides, no lecithin): > 340 mg/mL
- solubility at 18 h ([1]; Medium Chain Triglycerides (oil phase) with egg lecithin, Medium Chain Triglycerides, Egg lecithin): > 349 mg/mL
- solubility at 18 h ([1]; Medium Chain Triglycerides (oil phase) with soy lecithin, Medium Chain Triglycerides, Soy lecithin): > 327 mg/mL
- solubility at 18 h ([1]; Medium Chain Triglycerides (oil phase), Medium Chain Triglycerides, no lecithin): > 341 mg/mL
- solubility at 18 h ([1]; Structured Triglycerides (oil phase) with egg lecithin, Structured Triglycerides, Egg lecithin): > 339 mg/mL
- solubility at 18 h ([1]; Structured Triglycerides (oil phase) with soy lecithin, Structured Triglycerides, Soy lecithin): > 317 mg/mL
- solubility at 18 h ([1]; Structured Triglycerides (oil phase), Structured Triglycerides, no lecithin): > 368 mg/mL
- droplet charge of emulsion ([2]; pH of about 9, 1 mM dibasic phosphate): net negative charge
- pH range in which emulsion achieves charge neutrality ([2]; titration in 1 mM dibasic phosphate): 7-7.5
